The values below come from publication PMC6985102 (Scientific Reports, 2020).

The structures appear in SMILES notation.

The nature of series [1]: Pharmacokinetic study in mouse. The note with it: for clearance / half-life: C57BL/6 albino, iv. As for the experimental part:
Blank plasma (10 µL) was spiked with 5 µL of SeC solution. NEM (10 µL, 0.4 M in DMA) and TCEP (5 µL, 0.2 M in H2O) were successively added to the spiked plasma. The mixture was vortexed for 30 sec and left for 10 min at room temperature before deproteinization using 50 µL of ACN. Two µL of processed sample were injected for LC-MS analysis (LC-MS parameters listed in Supplementary Table 2).
All animal experiments were approved by the Stockholm Southern Ethical Committee and performed in accordance with Swedish Animal Welfare Law (ethical permit no. ID 1031). CysSe2 (0.7 mg/mL) or MeSeA (1 mg/mL) was prepared in DPBS and the pH was adjusted to around 7.4. Ebselen or p-XSC was first dissolved in DMSO/Cremophor EL (1:1, v/v) at 5 mg/mL and then diluted with DPBS till 0.5 mg/mL. CysSe2 or MeSeA was injected into C57BL/6 albino mouse via the tail vein at a dose of 5 mg/kg; while the dose for ebselen and p-XSC was 2 mg/kg. Approximately 50 µL of blood were collected from the facial vein at different time points into EDTA-coated vials. SeC concentration in plasma was analyzed as described under section “Analysis of SeC using RECID”. The detected concentrations were fitted to a bolus injection in a one-compartment open model and the pharmacokinetic parameters were calculated using WinNonLin software (version 2.0).

The target in series [2] is T1, BSA (Bos taurus, UniProt P02769). Description: Albumin binding degree by ultrafiltration. Particulars: 5% albumin solution, SeC 20 µg/mL. The arrangement: purchased Thermo Fisher. It counts as in vitro ADME, bovine. The protocol:
Two hundred µL of SeC solution were mixed with equal volume of H2O (control) or 5% BSA solution (final SeC concentration being 20 µg/mL). The mixture was transferred into an ultrafiltration tube (cut off 10 kDa, Sigma-Aldrich, 13239E) and centrifuged (2000 g and 5 min) to obtain the ultra-filtrate. Twenty µL of the ultra-filtrate were mixed with 50 µL of ACN and analyzed for SeC in parent form. Albumin binding degree was calculated as the percentage of SeC peak area in BSA solution in relative to that in H2O.

A further series addresses human serum albumin (Homo sapiens, UniProt P02768). Description: XAS linear combination fitting of SeC-human plasma mixture (SeC-HP). Particulars: XANES linear combination fitting, total SeC 20 µg/ml; for SeC-HSA (%): albumin-bound share in SeC-human plasma mixture; for SeC (%): free SeC share in SeC-human plasma mixture. The protocol: SeC solution (40 µL; 2 mg/mL) was mixed with HSA (50 mg/mL in H2O; […]) and kept at room temperature for 30 min. The crude material was separated on a Superdex 200 Increase 10/300 GL column (GE Healthcare). The mobile phase consisted of ACN/H2O (5/95; v/v) at a flow rate of 0.75 mL/min. A total of 40 fractions (1 ml per fraction) approximately were collected, pooled and lyophilized (selenol-human serum albumin conjugate; SeC-HSA).
The mixture of SeC and human plasma (SeC-HP) was prepared. Generally, SeC solution (20 µL; 2 mg/mL) was mixed with 2 mL human plasma, kept at room temperature for 10 min and lyophilized. Selenium K-edge XAS measurements were performed in QEXAFS mode using a Si(311) double-crystal monochromator in CLAESS beamline at ALBA synchrotron light facility (Barcelona, Spain). Self-supported 5 mm pellets of SeC-HSA or SeC-HP (~20 mg) were measured in fluorescence mode using a 5 elements Silicon drift detector. For the reference compounds, the appropriate amount of pure SeC was mixed with cellulose to form pellets with an optimum absorption jump in transmission mode. Transmission was measured with ionization chambers filled with appropriate mixtures of N2 and Kr gases. To avoid radiation damage, all measurements were performed at liquid N2 temperature using the cryostat available at the beamline. Data analysis was performed using Demeter software package (version 0.9.26)[23].
In order to confirm the albumin binding, SeC was firstly allowed to react with HSA. The crude material was then separated by size exclusion chromatography and the eluent corresponding to […] was collected and lyophilized (SeC-HSA). SeC-HSA was subsequently subjected to XAS measurement and compared to the SeC itself. […] In addition, since the XAS spectra of mixtures can be expressed as an additive combination of its constituents, a linear combination fitting analysis using the reference spectra of SeC-HSA and SeC was carried out to assess the amount of each form in the mixture of SeC and human plasma (SeC-HP).
27 Supplementary Table 3. Linear combination fitting results of X-ray absorption near
28 edge spectra. The fitting was performed over the spectra for selenocompound-human plasma
29 mixture between -20 and 50 eV keeping E0 fixed and equal to 0 eV.

The test system of a further series is C1498 cells. Description: Cytotoxicity of SeC (CellTiter-Glo). Particulars: C1498 leukemic cells, 24 hr, within the concentration range tested. The protocol:
C1498 cells were cultured in DMEM supplemented with FBS (10%, v/v), penicillin (100 unit/mL) and streptomycin (100 µg/mL). Cells under the exponential growth phase were used for the cytotoxicity study. […] The stock solutions were diluted with cell culture medium till target concentration range. Briefly, 350 µL of cell suspension (0.2 × 10^6 cells/mL) were mixed with equal volume of SeC solution. The mixture was aliquoted to 96-well plate (100 µL per well) and incubated for 24 hours. Cell viability was determined using CellTiter-Glo kit (Promega, G7571). Cells treated with the appropriate solvent were used as the control. Cell survival rate was calculated as the percentage of […] in SeC-treated cells/control group.
Background: In ATP-based viability assays light output follows the ATP content of the culture.

The nature of series [3]: Stability of selenocompound in plasma and selenol derivative in processed sample (RECID). It counts as in vitro ADME, human. The protocol: 48 Supplementary Table 7. Stability of selenocompound in plasma and selenol derivative in
49 processed sample. SeC-spiked plasma was treated as indicated and then analyzed using
50 RECID. SeC-NEM in processed sample was treated in the same way and then subjected to
51 LC-MS analysis. Stability was shown as the percentage of the peak area after indicated
52 treatment to that from base line value. SeC concentrations were 20 µg/mL. Results are shown
53 as the mean ± SD of three technical replicates.
SeC Sample Type Treatment
RT/24 hr 4 °C/24 hr -20 °C/24 hr Freeze-Thaw/5 Cycles

Series [4] addresses T1, BSA. Description: Extraction efficiency of parent SeC after deproteinization (BSA, NEM-pretreated BSA). The protocol:
The spiked matrix was obtained by adding 10 µL of SeC solution into 10 µL of blank plasma or 5% BSA solution. To extract the parent SeC from the prepared spiked matrix (20 µL), 50 µL of ACN were added followed by rigorous vortexing. The mixture was centrifuged (30,000 g, 10 min) to obtain the extract. Two µL of the extract were injected into the liquid chromatography-mass spectrometry (LC-MS, Thermo TSQ Quantum Ultra) analyzer. Details about LC conditions (column, mobile phase and flow rate) and MS parameters were listed in Supplementary Table 1.
To clarify the role of albumin thiols, 10 µL of 5% BSA solution were pre-incubated with NEM (10 µL, 0.4 M in DMA) for 10 min before being mixed with SeC solution (10 µL). Again, 50 µL of ACN were used for extraction and 2 µL of the extract were injected into LC-MS for analysis.

[5] abbreviates: Spiked Plasma, 4 °C/24 hr, SeC 20 µg/mL.
The mark [6] stands for this setting: Spiked Plasma, -20 °C/24 hr, SeC 20 µg/mL.
The mark [7] stands for this setting: Spiked Plasma, Freeze-Thaw/5 Cycles, SeC 20 µg/mL.
The mark [8] stands for this setting: Spiked Plasma, RT/24 hr, SeC 20 µg/mL.
[9] abbreviates: 5% BSA (pristine albumin) after deproteinization, SeC 20 µg/mL.
Where [10] appears, read: NEM pretreated-BSA (albumin thiols blocked) after deproteinization, SeC 20 µg/mL.

T1 sequence (P02769 25-607): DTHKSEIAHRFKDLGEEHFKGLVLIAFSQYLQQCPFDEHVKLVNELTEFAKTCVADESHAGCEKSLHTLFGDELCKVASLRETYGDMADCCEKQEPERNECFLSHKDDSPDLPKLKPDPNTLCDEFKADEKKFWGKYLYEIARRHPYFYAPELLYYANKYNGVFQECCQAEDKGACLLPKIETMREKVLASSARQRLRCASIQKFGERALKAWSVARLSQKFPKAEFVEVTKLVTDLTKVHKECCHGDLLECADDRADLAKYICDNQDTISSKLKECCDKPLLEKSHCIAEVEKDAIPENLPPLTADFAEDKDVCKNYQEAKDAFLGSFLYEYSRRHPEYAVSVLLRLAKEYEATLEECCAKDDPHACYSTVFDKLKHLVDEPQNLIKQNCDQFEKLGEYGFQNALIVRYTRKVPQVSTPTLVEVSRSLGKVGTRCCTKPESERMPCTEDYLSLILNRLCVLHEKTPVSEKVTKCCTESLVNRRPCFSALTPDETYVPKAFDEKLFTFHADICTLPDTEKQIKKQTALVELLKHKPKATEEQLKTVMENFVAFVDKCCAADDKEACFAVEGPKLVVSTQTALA
Sequence of human serum albumin (P02768 25-609): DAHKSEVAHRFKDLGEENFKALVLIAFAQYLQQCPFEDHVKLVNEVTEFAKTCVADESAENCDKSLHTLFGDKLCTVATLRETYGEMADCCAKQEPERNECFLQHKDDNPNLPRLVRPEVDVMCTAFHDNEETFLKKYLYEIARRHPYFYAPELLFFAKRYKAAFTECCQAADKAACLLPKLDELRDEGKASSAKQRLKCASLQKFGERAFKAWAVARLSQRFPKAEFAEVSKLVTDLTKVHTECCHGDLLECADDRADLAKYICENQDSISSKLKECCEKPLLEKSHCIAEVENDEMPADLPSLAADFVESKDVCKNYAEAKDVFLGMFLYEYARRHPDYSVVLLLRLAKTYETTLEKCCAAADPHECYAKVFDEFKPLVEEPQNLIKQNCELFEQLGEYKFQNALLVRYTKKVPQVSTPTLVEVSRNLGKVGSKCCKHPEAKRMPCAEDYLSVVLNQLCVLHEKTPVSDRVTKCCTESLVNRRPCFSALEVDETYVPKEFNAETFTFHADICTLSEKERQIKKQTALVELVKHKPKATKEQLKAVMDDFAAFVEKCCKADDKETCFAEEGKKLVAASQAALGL

In the case of `O=c1c2ccccc2[se]n1-c1ccccc1` [Ebselen], the clearance – broadly, a measure of how efficiently the substance is removed, as volume per time – in series [1] (plasma) was 0.177 mL/min. Further, the half-life – broadly, how long it takes for the measured level to halve – in series [1] (plasma) is 13.2 ± 2.4 min. In addition, the Albumin binding degree at BSA [2] is reported as 52–100%. Further, at human serum albumin, the “SeC-HSA (%)” value worked out at 91.5%. Besides, at human serum albumin, the “SeC (%)” value is given as 8.5%. For the same compound, in the series on C1498 cells, the Cytotoxicity entry is listed as “showed cytotoxicity”. The “Stability (peak area vs base line)” value in series [3] (setting [5]) was 113.1 ± 0.5%; in series [3] (setting [6]), 108.2 ± 3.2%; in series [3] (setting [7]), 97.2 ± 2.7%; in series [3] (setting [8]) it was 110.3 ± 1.8%. The Extraction efficiency came to 9.3% on BSA [4] (setting [9]) and 90.7% on BSA [4] (setting [10]).
As for `NC(C[Se][Se]CC(N)C(=O)O)C(=O)O` (stereo not shown) [CysSe2, Selenocystine], the clearance in series [1] (plasma) was 0.642 mL/min. The compound further showed a half-life in series [1] (plasma) of 8.4 ± 1.2 min. Further, in series [1] (intravenous, CysSe2 5 mg/kg vs ebselen 2 mg/kg), the “Total exposure compared to that of ebselen” value is on record as “around 72%”. The “Exposure adjusted for dose, relative to ebselen” value in series [1] (intravenous, dose-adjusted) is “less than one third”. For the same compound, the Albumin binding degree on BSA [2] is given as 52–100%. Further, the “SeC-HSA (%)” value on human serum albumin worked out at 80.4%. Further, on human serum albumin, the “SeC (%)” value came to 19.6%. The Cytotoxicity entry in the series with C1498 cells is on record as “showed cytotoxicity”. Besides, the “Stability (peak area vs base line)” value in series [3] (setting [5]) was found to be 100.9 ± 7.9%; in series [3] (setting [6]), 99.6 ± 6.4%; in series [3] (setting [7]), 102.2 ± 0.6%; in series [3] (setting [8]), 98.6 ± 7.1%. Besides, the Extraction efficiency at BSA [4] (setting [9]) is recorded as 21.4%; on BSA [4] (setting [10]) it was 79.6%.
In series [1] (in vivo), `N#C[Se]Cc1ccc(C[Se]C#N)cc1` [p-XSC, p-xyleneselenocyanate] had a clearance of 0.0967 mL/min and a half-life of 30.6 ± 7.2 min. In addition, at BSA [2], the Albumin binding degree was 52–100%. In addition, on human serum albumin, the “SeC-HSA (%)” value was 100.0% and the “SeC (%)” value came out at 0%. The Cytotoxicity entry in the series with C1498 cells was “showed cytotoxicity”.
`C[Se]CC[C@H](N)C(=O)O` [SeMet, Selenomethionine] yielded an Albumin binding degree on BSA [2] of less than 3%. Further, the Cytotoxicity result in the series on C1498 cells is on record as “no cytotoxic effect”. The Extraction efficiency result on BSA [4] (setting [9]) was “over 95%”.
In the case of `C[Se]C[C@H](N)C(=O)O` [MeSeCys, methylselenocysteine], the Albumin binding degree at BSA [2] is less than 3%. Further, the Cytotoxicity entry in the series with C1498 cells is given as “no cytotoxic effect”. At BSA [4] (bovine, 20 µg/mL), the Extraction efficiency result is reported as “over 95%”.
As for `C[Se](=O)O` [MeSeA, methylseleninic acid], the Albumin binding degree at BSA [2] is 52–100%. The “SeC-HSA (%)” value on human serum albumin is given as 100.0%. Besides, the “SeC (%)” value at human serum albumin stood at 0%. In the series with C1498 cells, the Cytotoxicity entry is reported as “showed cytotoxicity”. In addition, the “Stability (peak area vs base line)” value in series [3] (Processed sample (SeC-NEM derivative), 4 °C/24 hr) stood at 106.7 ± 0.5%; in series [3] (Processed sample (SeC-NEM derivative), -20 °C/24 hr), 103.2 ± 1.0%; in series [3] (Processed sample (SeC-NEM derivative), Freeze-Thaw/5 Cycles) it was 104.3 ± 0.4%; in series [3] (Processed sample (SeC-NEM derivative), RT/24 hr) it was 114.3 ± 0.3%; in series [3] (setting [5]), 108.9 ± 4.8%; in series [3] (setting [6]) it was 116.0 ± 3.2%. Also, the “Stability (peak area vs base line)” value in series [3] (setting [7]) is 117.3 ± 0.5%; in series [3] (setting [8]) it was 110.9 ± 2.0%. Also, the Extraction efficiency on BSA [4] (setting [9]) was 0%; at BSA [4] (setting [10]), 94.8%.
